The values below come from patent US20250288584A1, “COMBINATIONS COMPRISING POSITIVE ALLOSTERIC MODULATORS OR ORTHOSTERIC AGONISTS OF METABOTROPIC GLUTAMATERGIC RECEPTOR SUBTYPE 2 AND THEIR USE” (JANSSEN PHARMACEUTICA NV, priority 2014, published 2025).

Where “and” joins values, the source holds several entries; their conditions need not be identical. Equal entries are not always repeated. Entries after “also recorded” stand apart in the source; their conditions may differ.

Data set [1] concerns paroxysmal dystonia. Conditions: dt^sz mutant hamster; cited from earlier work.
Data set [2] deals with 6 Hz (44 mA) psychomotor seizures. The data set can be described thus: 6 Hz psychomotor seizure test, 44 mA (alone, combination with LEV, isobolographic study). It is filed as in vivo, mice. Conditions: for ED50: at TPE, read-out: ED50 (95% CI) 44 mA. Here is the method: Test compounds were administered using an optimal fluid volume to body fluid ratio. Test compounds were administered to mice in a volume of 0.01 mL/g of body weight (White H. S., et al., General Principles: Experimental selection, quantification, and evaluation of antiepileptic drugs, in Antiepileptic Drugs, Fourth Edition, […], and B. S. Meldrum, Editors. 1995, Raven Press, Ltd.: New York, pp. 99-110). For subcutaneous (s.c.) administration, the test compounds were administered into a loose fold of skin along the back of the animal except compound 6-b, which was administered orally (p.o). […] The animals were maintained on an adequate diet (Prolab RMH 3000) and allowed free access to food and water, except during the short time they were removed from their cage for testing. Animals newly received in the laboratory were allowed sufficient time to correct for possible food and water restriction incurred during transit before being employed in testing. All mice were housed in plastic cages in specially constructed rooms with controlled humidity, exchange of air and controlled lighting (12 hours on-12 hours off). The animals were housed, fed, and handled in a manner consistent with the recommendations in the National Council Publication, “Guide for the Care and Use of Laboratory Animals”. In the determination of an ED50 or TD50 for each test compound, the first dose administered is usually the same dose as that used in a successful TPE determination. […] Third and fourth doses were selected to produce an evenly spaced dose response line. […] The 6 Hz seizure test is used as a model of pharmacoresistant limbic seizures. […] Focal seizures were induced in mice via corneal stimulation (6 Hz, 0.2 msec rectangular pulse, 3 sec duration; Barton et al. 2001). Mice were tested at either 32 mA or 44 mA. […] The seizures that arise from corneal stimulation in this assay are characterized by a minimal clonic phase followed by stereotyped automatistic behaviors including stun, forelimb clonus, twitching of the vibrissae, and Straub-tail. Animals not displaying these behaviors were considered protected. […] In addition to recording the efficacy and toxicity data for these compounds alone or in combination, both plasma and brain samples were collected from each of the groups for pharmacokinetic/pharmacokinetic analysis. No pharmacokinetic interaction was observed based on compound levels in the plasma and brain samples (data not shown). Isobolographic studies were conducted for the combined administration of Co. […] Studies were conducted according to previously described methods (Madsen et al. 2011). Initial ED50 values were determined for both Co. […] Co. […] Doses used were proportional to calculated ED50 values. […] Experimental treatment doses (see Table 4) were based on theoretical values and adjusted according to observed effects. Experimentally determined ED50 (+SEM) values for each fixed dose-ratio combination were compared to the theoretical values (t-test) for statistical purposes. […] Subsequently, the experimental combined doses were determined for the same paradigms in the 6 Hz seizure test (Table 4 below).

Data set [3] deals with corneal kindled seizures. The data set can be described thus: Mouse corneal kindling model. Conditions: Racine score 0-5. It counts as in vivo, mice. How it is done:
After the mice reached a stable kindled state, the test compound or vehicle was administered and, at the previously determined TPE, each animal was given the electrical stimulus indicated above. […] One dose of LEV and two doses of Co.

Data set [4] is described as follows: Minimal motor impairment (rotarod). It is filed as in vivo, mice. Conditions: for # rotarod motor impairment/# tested: 0.5 h. How it is done:
Acute MMI was assessed by a combination of direct observations of the animal for overt symptoms of the animal's neurological or muscular function. In mice, the rotarod procedure was used to disclose minimal muscular or neurological impairment. When a mouse is placed on a rod that rotates at a speed of 6 rpm, the animal can maintain its equilibrium for long periods of time. The animal was considered toxic if it fell off this rotating rod three times during a 1 min period.
In the determination of an ED50 or TD50 for each test compound, the first dose administered is usually the same dose as that used in a successful TPE determination.
If the initial dose employed was effective or toxic in more than 50% of animals, the next dose would be one-half that of the initial dose; if the initial dose was effective or toxic in less than 50% of animals, the following dose would be twice that of the initial dose. Third and fourth doses were selected to produce an evenly spaced dose response line. There should be a minimum of 4 points either including or lying between 0 and 100%.

The subject of data set [5] is 6 Hz (32 mA) psychomotor seizures. Kind of data set: 6 Hz psychomotor seizure test, 32 mA (incl. TPE determination). It is filed as in vivo, mice. Conditions: for # protected/# tested: 0.5 h; for ED50 (95% CI) 32 mA: s.c.; for ED50 (95% CI) 32 mA / ED50: at TPE; for ED50: Mus musculus, sc, read-out: ED50 (95% CI) 32 mA. Here is the method:
Test compounds were administered using an optimal fluid volume to body fluid ratio. Test compounds were administered to mice in a volume of 0.01 mL/g of body weight (White H. S., et al., General Principles: Experimental selection, quantification, and evaluation of antiepileptic drugs, in Antiepileptic Drugs, Fourth Edition, […], and B. S. Meldrum, Editors. 1995, Raven Press, Ltd.: New York, pp. 99-110). For subcutaneous (s.c.) administration, the test compounds were administered into a loose fold of skin along the back of the animal except compound 6-b, which was administered orally (p.o). […] The animals were maintained on an adequate diet (Prolab RMH 3000) and allowed free access to food and water, except during the short time they were removed from their cage for testing. Animals newly received in the laboratory were allowed sufficient time to correct for possible food and water restriction incurred during transit before being employed in testing. All mice were housed in plastic cages in specially constructed rooms with controlled humidity, exchange of air and controlled lighting (12 hours on-12 hours off). The animals were housed, fed, and handled in a manner consistent with the recommendations in the National Council Publication, “Guide for the Care and Use of Laboratory Animals”. In the determination of an ED50 or TD50 for each test compound, the first dose administered is usually the same dose as that used in a successful TPE determination. […] Third and fourth doses were selected to produce an evenly spaced dose response line. […] TPE was determined using the 6 Hz (32 mA) assay. […] The 6 Hz seizure test is used as a model of pharmacoresistant limbic seizures. […] Focal seizures were induced in mice via corneal stimulation (6 Hz, 0.2 msec rectangular pulse, 3 sec duration; Barton et al. 2001). Mice were tested at either 32 mA or 44 mA. […] The seizures that arise from corneal stimulation in this assay are characterized by a minimal clonic phase followed by stereotyped automatistic behaviors including stun, forelimb clonus, twitching of the vibrissae, and Straub-tail. Animals not displaying these behaviors were considered protected.

A short description of data set [6]: Plasma and brain levels (pK/pD analysis). The note with it: for concentration at 0.25 h: mouse, subcutaneous. It counts as in vivo, mice. Here is the method:
In various tests, animals were sacrificed following testing, and trunk blood and/or brain tissue (whole brains) was collected for quantification of drug levels. Immediately after testing, animals were decapitated and trunk blood was collected into a BD Vacutainer® tube containing K2EDTA and chilled on ice until centrifugation. Following centrifugation (13000-18000 rpm, 5-7 min), the plasma was removed and transferred to a labeled microcentrifuge tube and stored at −80° C. For brain tissue collection, brains were removed immediately following decapitation and flash frozen. The frozen sample was placed in a labeled centrifuge tube and stored at −80° C.
In addition to recording the efficacy and toxicity data for these compounds alone or in combination, both plasma and brain samples were collected from each of the groups for pharmacokinetic/pharmacokinetic analysis.

The target of data set [7] is T1, human mGlu2 receptor (Homo sapiens, UniProt Q14416).
T1 construct: expressed in transfected cells; host or cells: CHO cells
Kind of data set: [35S]GTPγS binding assay, mGluR2 PAM. It is filed as biochemical. Conditions: maximal % effect relative to control glutamate response; EC20 glutamate; read-out: GTPγS-hmGluR2 PAM Emax.

Data set [8] deals with 6 Hz seizures. Conditions: dose-dependent manner; cited from earlier work.
Data set [9] deals with MES seizures. The note with it: in vivo; cited from earlier work.
Setting [10] is: Mus musculus, sc, compound alone.
[11] abbreviates: Co. No. 2 3 mg/kg combined with LEV 10 mg/kg, 6 Hz 44 mA.

T1 sequence (Q14416 19-872): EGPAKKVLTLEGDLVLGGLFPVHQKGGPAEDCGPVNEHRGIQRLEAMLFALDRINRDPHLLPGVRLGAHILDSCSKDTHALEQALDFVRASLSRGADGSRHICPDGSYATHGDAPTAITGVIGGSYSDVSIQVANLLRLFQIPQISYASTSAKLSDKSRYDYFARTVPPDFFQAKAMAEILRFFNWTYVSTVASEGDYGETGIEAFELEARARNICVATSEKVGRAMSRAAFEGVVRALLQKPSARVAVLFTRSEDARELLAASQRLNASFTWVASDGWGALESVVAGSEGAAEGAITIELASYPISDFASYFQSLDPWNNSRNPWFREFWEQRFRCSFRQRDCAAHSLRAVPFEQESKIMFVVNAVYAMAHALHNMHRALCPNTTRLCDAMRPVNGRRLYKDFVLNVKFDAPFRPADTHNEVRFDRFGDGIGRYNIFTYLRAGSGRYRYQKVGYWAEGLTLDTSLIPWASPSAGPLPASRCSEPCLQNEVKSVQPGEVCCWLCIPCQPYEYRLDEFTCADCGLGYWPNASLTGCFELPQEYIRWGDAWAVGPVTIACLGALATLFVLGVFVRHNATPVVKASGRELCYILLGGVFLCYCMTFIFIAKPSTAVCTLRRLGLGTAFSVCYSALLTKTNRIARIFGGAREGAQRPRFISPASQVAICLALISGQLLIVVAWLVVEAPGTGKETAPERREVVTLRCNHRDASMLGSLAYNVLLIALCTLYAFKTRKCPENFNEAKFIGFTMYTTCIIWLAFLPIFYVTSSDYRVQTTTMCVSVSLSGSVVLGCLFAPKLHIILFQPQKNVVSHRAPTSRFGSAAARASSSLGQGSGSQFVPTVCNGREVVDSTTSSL

Consider `CCC[C@@H]1CC(=O)N([C@@H](CC)C(N)=O)C1` [Brivaracetam, (2S)-2-[(4R)-oxo-4-propyl-pyrrolidin-1-yl]butanamide], for which the “effect on severity of dystonia” value in [1] is “reduce the severity of dystonia”.
On to `CCCCn1ccc(N2CCC(c3ccccc3)CC2)c(Cl)c1=O` [Co. No. 2-a], for which the “activity when administered alone” value in data set [2] (10 mg/kg s.c.) is “^aCo. No. 2-a (s.c.) 10 mg/kg tested in combination with LEV (i.p.); Co. No. 2-a 10 mg/kg, not active when administered alone; also recorded: ^bCo. No. 2-a (s.c.) 10 mg/kg tested in combination with LEV (i.p.); Co. No. 2-a 10 mg/kg, not active when administered alone”. In addition, in [2] (100 mg/kg s.c.), the “% protection 44 mA” value came to 50% protection at. Moreover, the responders at 10 mg/kg in data set [2] (Mus musculus, sc, 0.5 h, 10 mg/kg s.c., 0.5 h, read-out: # protected/# tested (converted)) was 0%. The responders at 15 mg/kg in data set [2] (Mus musculus, sc, 0.5 h, 15 mg/kg s.c., 0.5 h, read-out: # protected/# tested (converted)) is 25%. Moreover, the responders at 20 mg/kg in data set [2] (Mus musculus, sc, 0.5 h, 20 mg/kg s.c., 0.5 h, read-out: # protected/# tested (converted)) was 37.5%. In addition, the responders at 40 mg/kg in [2] (Mus musculus, sc, 0.5 h, 40 mg/kg s.c., 0.5 h, read-out: # protected/# tested (converted)) is 100%. Further, the ED50 in data set [2] (setting [10]) worked out at 21 mg/kg. The “Seizure score (dose) Corneal kindling” value in data set [3] (100 mg/kg s.c.) is on record as 4.4. The “# rotarod motor impairment/# tested” value is 1/8 in data set [4] (2.5 mg/kg s.c., 32 mA group); 0/8 in [4] (5 mg/kg s.c., 32 mA group); 0/8 in [4] (10 mg/kg s.c., 32 mA group); 1/8 and 0/8 in data set [4] (10 mg/kg s.c., 44 mA group); 1/8 in [4] (15 mg/kg s.c., 44 mA group); 3/8 in data set [4] (20 mg/kg s.c., 32 mA group). Also, the “# rotarod motor impairment/# tested” value is 0/8 in data set [4] (20 mg/kg s.c., 44 mA group); 2/8 in data set [4] (40 mg/kg s.c., 32 mA group); 4/8 in [4] (40 mg/kg s.c., 44 mA group). Besides, the TD50 at 0.5 h in [4] (mouse, in vivo, sc, rotarod) was above 40 mg/kg. Besides, the “# protected/# tested” value in [5] (2.5 mg/kg s.c.) is given as 0/8; in data set [5] (5 mg/kg s.c.) it was 0/8; in data set [5] (10 mg/kg s.c.) it was 4/8; in data set [5] (20 mg/kg s.c.), 6/8; in data set [5] (40 mg/kg s.c.), 8/8. The “ED50 (95% CI) 32 mA” value in data set [5] is on record as “ED50 (95% CI): 12.2 mg/kg (8.4 to 17.4)”.
With `FC(F)(F)c1c(N2CCC(c3ccccc3)CC2)ccn2c(CC3CC3)nnc12` [Co. No. 2], the responders at 3 mg/kg in [2] (Mus musculus, sc, 0.25 h, 3 mg/kg s.c., 0.25 h, read-out: # protected/# tested (converted)) is 16.7%. For the same molecule, the ED50 is 5.89 mg/kg in data set [2] (setting [10]) and 3.83 mg/kg in [5]. In addition, the “Maximum Effect (% Protection)” value in data set [2] (compound alone) is 100%. In data set [3] (40 mg/kg s.c.), the “Seizure score (dose) Corneal kindling” value stood at 3.4. Further, the “Brain (ng/ml) Co. No. 2, individual mice” value in data set [6] (setting [11]) was 1120 ng/mL and 1140 ng/mL and 1540 ng/mL and 1020 ng/mL. In data set [6] (setting [11]), the “Plasma (ng/ml) Co. No. 2, individual mice” value was 4700 ng/ml and 467 ng/ml and AQL and (>500) ng/ml and 2080 ng/ml and 1830 ng/ml and 386 ng/ml. In addition, the concentration at 0.25 h in data set [6] (brain, 3 mg/kg, Mean Brain Level (non-combination) Co. No. 2, Co. No. 2 3 mg/kg alone) is 1110 ng/mL; in data set [6] (brain, Brain (ng/ml) Co. No. 2, individual mice, Co. No. 2 3 mg/kg combined with LEV 10 mg/kg, 6 Hz 44 mA), 1310 ng/mL; in [6] (brain, Mean Brain Level Co. No. 2, Co. No. 2 3 mg/kg combined with LEV 10 mg/kg), 1230 ng/mL; in data set [6] (plasma, 3 mg/kg, Mean Plasma Level (non-combination) Co. No. 2, Co. No. 2 3 mg/kg alone), 1300 ng/mL; in data set [6] (plasma, Mean Plasma Level Co. No. 2, Co. No. 2 3 mg/kg combined with LEV 10 mg/kg), 1890 ng/mL.
Consider `FC(F)(F)Cc1nnc2c(Cl)c(N3CCC(F)(c4ccccc4)CC3)ccn12` [Co. No. 11], for which the ED50 in data set [2] (setting [10]) came out at 31.5 mg/kg. For the same molecule, the “Seizure score (dose) Corneal kindling” value in data set [3] (100 mg/kg s.c.) was found to be 2.8. Also, the Emax in [7] stood at 310%. In addition, in [5], the median effective dose (ED50) was 4.77 mg/kg and the “ED50 (95% CI) 32 mA” value is recorded as 9.41 (1.53-15.1) mg/kg.
In the case of `N[C@@]1(C(=O)O)CO[C@H]2[C@H](C(=O)O)[C@H]21` [LY379268], the “activity in the 6 Hz model” value in data set [8] is on record as “effective”. Besides, in data set [9], the “activity in maximal electroshock (MES) seizure test” value is given as “ineffective”.
With `CC[C@@H](C(N)=O)N1C[C@H](C=C(F)F)CC1=O` [Seletracetam, (2S)-2-[(4S)-4-(2,2,-difluorovinyl)-2-oxo-pyrrolidin-1-yl]butanamide], the “effect on severity of dystonia” value in data set [1] was “reduce the severity of dystonia”.
